In patent US9526757B2, “Peptides that inhibit the interaction between ASF1 and histones, and use thereof” (COMMISSARIAT A L'ENERGIE ATOMIQUE ET AUX ENERGIES …, priority 2011, dated 2016):
Entries after “also recorded” stand apart in the source; their conditions may differ. Where two headings read alike, the source gives them in different places. Where no end group is shown, it is not given here.

Legend:
[1] = target: T1, Asf1 1-156 (Homo sapiens, UniProt Q9Y294); assay: Calorimetry (ITC) of the interaction of peptides with Asf1 1-156; assay type: binding; details: for binding to Asf1 (in words): control peptide mutated on three key residues; for affinity for Asf1 compared with peptide i5: optimized sequences of i5
T1 construct: made in house
Description: FIG. 1: ITC curves of the interaction Asf1 1-156 (30 μM in A, 10 μM in B and C) with peptide i1 (A), i4 (B) and i5 (C). The peptide concentration used for this experiment is 0.5 mM for i1, and 0.16 mM for i4 and i5.
Human Asf1a and b proteins and the conserved N-terminal domain (1-156) of each of the isoforms were cloned into the vector peTM30. The unlabeled and ^15N and ^13C/^15N labeled recombinant proteins were purified according to the protocol of Mousson et al. (2004, Journal of Biomolecular NMR, 29(3): 413-414). The peptides were either produced by chemical synthesis ([…]), or cloned after gene synthesis ([…]) in the vector Gateway pDest 17 (Invitrogen), then purified according to the protocol of Mousson et al. (2005, Proc. Natl. Sci. USA, 102(17): p. 5975-5980).
All calorimetry experiments were carried out in 50 mM Tris buffer pH 7.4 at 5° C., unless otherwise indicated. Peptides were introduced in the syringe at a concentration of […] and Asf1 was added to the cuvette at a concentration of 30 μM or 10 μM. Calorimetry tests were also conducted at 25° C. or in 50 mM Tris buffer, 150 mM NaCl, pH 7.4 to obtain more detailed information on the characteristics of the interactions studied.

[2] = target: T2, Asf1-H3-H4 interaction (Homo sapiens, UniProt Q9Y294); assay: Competition assay on GST column (peptide/histone competition in vitro, Western blot); assay type: binding; details: peptide 0.1 mM and 1 mM, FIG. 3
T2 construct: The human protein GST-Asf1 1-156 was produced; made in house
Description: To do this, GST beads linked to Asf1 were incubated with an excess of histones H3-H4, then washed and incubated with increasing concentrations of peptide. The eluted histones were analyzed by Western blot.
The human protein GST-Asf1 1-156 was produced and then incubated with GST beads (glutathione S transferase, Sigma). For each experiment, 40 μg of recombinant Asf1 fixed to agarose beads were incubated with 400 μg of histones. After washing with 50 mM Tris buffer, pH 8, 150 mM NaCl, 1 mM EDTA, 1 mM DTT, 0.5% NP40, the beads were incubated with different concentrations of peptide (0 to 1 mM) dissolved in the same buffer.

[3] = test system: U2OS cells; assay: Toxicity test on U2OS cells transduced with peptides in the presence of pyrene butyrate; assay type: cell-based, human; details: 24 hours after transduction
Description: To optimize the internalization of the peptide, the transduction was performed in the presence of pyrene butyrate, according to the method proposed by Takeuchi et al. (ACS CHEMICAL BIOLOGY, 2006. 1(5): p. 299-303). […] RRP5-i1 is the peptide of SEQ ID NO: 60. RRP5-i5 is the peptide of SEQ ID NO: 66. This correlation between the affinity of the peptide for Asf1 and the induced cell toxicity was confirmed for another cell type (HeLa cells) and by using another protocol to measure cell survival, the MTT assay (FIG. 10).
To test the phenotypes induced by the peptide, a newly developed protocol for the “Cell Penetrating TAT” was used. The peptides were dissolved in PBS buffer containing […] and incubated with U2OS (or HeLa) cells for 4 minutes. Cells were then washed three times with PBS buffer, then taken up in culture medium containing fetal calf serum. Cell death was analyzed by FACS 24 to 48 hours later by propidium iodide incorporation or by an MTT assay (3-(4,5-dimethylthiazol-2-yl)-2,5-diphenyl tetrazolium bromide). (Mosmann, T. J. Immunol. Methods 65: 55-63, 1983).

[4] = test system: U2OS cells; assay: Cell penetration test of FITC-labelled peptides by flow cytometry; assay type: cell-based, human; details: FITC label, 1 μM, 1 hour, FIG. 5
Description: The capacity of the peptide i42V (SEQ ID NO: 47) coupled either to the sequence TAT (peptide TAT-i42V, SEQ ID NO: 58) or to the sequence (RRP)5 (peptide RRP5-i42V, SEQ ID NO 59) was measured using these peptides coupled to an FITC label. The mean fluorescence of the cells was analyzed by flow cytometry (FIG. 5).
U2OS cells were incubated with culture medium supplemented with fluorescent peptide at a final concentration of 1 μM for 1 hour, then washed with PBS buffer and detached by addition of trypsin, washed with PBS buffer, then analyzed by flow cytometry (FACS).

[5] = ITC, 50 mM Tris buffer pH 7.4 at 5° C., Asf1 1-156, read-out: Kd

T1 sequence (Q9Y294 1-156): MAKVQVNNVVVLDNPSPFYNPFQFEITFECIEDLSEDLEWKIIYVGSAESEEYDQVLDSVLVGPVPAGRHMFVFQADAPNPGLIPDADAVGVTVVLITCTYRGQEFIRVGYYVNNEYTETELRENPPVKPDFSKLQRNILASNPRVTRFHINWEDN
T2 sequence (Q9Y294 1-156): as above

| Substance | Kd [1, 5] [nM] | other results |
| --- | --- | --- |
| GAMGTIMPKDIQLARRIRG [SEQ ID NO: 70] |  | Kd ([1]; unit inferred, read-out: affinity for Asf1): 8000 nM |
| GAMGTITPKEAQLARRIRGAGGVTLNGFG [SEQ ID NO: 47] | 350 |  |
| i5mut: control peptide, 90% identity with peptide i5, mutated to alanine on three key residues, no longer binds to Asf1 (ASTERKWAEAARRARGAGGVTLNGAG) [reference compound] |  | binding to Asf1 (in words) [1]: no longer binds to Asf1; also recorded: does not bind to Asf1; histones bound to or detached from GST-Asf1 beads [2]: the histones remain bound to Asf1 |
| RRP5-i5mut: mutated version of RRP5-i5 carrying the (RRP)5 sequence, does not bind to Asf1; negative control (RRPRRPRRPRRPRRPASTERKWAEAARRARGAGGVTLNGAGGCA) |  | binding to Asf1 (in words) [1]: does not bind to Asf1; toxicity (in words) [3]: no toxicity was seen |
| RRPRRPRRPRRPRRPGAMGTITPKEAQLARRIRGAGGVTLNGFG [SEQ ID NO: 59] |  | penetration into cells (mean fluorescence) [4]: penetrate more effectively than the penetration sequences alone |
| GRKKRRQRRRGAMGTITPKEAQLARRIRGAGGVTLNGFG [SEQ ID NO: 58] |  | penetration into cells (mean fluorescence) [4]: penetrate more effectively than the penetration sequences alone |
| ASTERKWAELARRIRGAGGRTLNGFG [SEQ ID NO: 77] |  | affinity for Asf1 compared with peptide i5 [1]: at least as good as that of peptide i5 |
| GAMGTLTPKEAELARRIRGAGGRTLNGFG [SEQ ID NO: 42] | 180 |  |
| ASTERKWAELARRIAGAGGVTLNGFG [SEQ ID NO: 79] |  | affinity for Asf1 compared with peptide i5 [1]: at least as good as that of peptide i5 |
| GAMGTLTPKEAELARRIRGAGASRTLNGFG [SEQ ID NO: 43] | 350 |  |
| GAMGLTAAEHAKRSTLTPKEAQLARRIRGAGGVTLNGFG [SEQ ID NO: 52] | 30 |  |

Further lines, with some results ahead:

| Kd [1, 5] [nM] | Substance | other results |
| --- | --- | --- |
| 60 | GAMGTLTPKEAELARRIRGAGGVTLNGFG [SEQ ID NO: 48] |  |
| 350 | GAMGTIMPKDIQLARRIRGAGASRTLYGFG [SEQ ID NO: 39] |  |
| 420 | GAMGTITPKEEQLRRRIEGAGASVTLNGFG [SEQ ID NO: 46] |  |
| 60 | GAMGRVPPAVRKLGNASTERKWAELARRIRGAGGVTLNGFG [SEQ ID NO: 65] |  |
| 30 | GAMGTRTPKERRLARRIRGAGGRTLNGFG [SEQ ID NO: 56] |  |
| 420 | RRPRRPRRPRRPRRPGAMGTITPKEAQLARRIRGAGGVTLNGFGCA [SEQ ID NO: 50] |  |
